From publication PMC6582486, “Stapled EGFR peptide reduces inflammatory breast cancer and inhibits additional HER-driven models of cancer” (Journal of Translational Medicine, 2019)
Where a SMILES comes first, the peptide text is derived from it. Bridges are numbered along the chain shown (N, C = ends). [ ]: non-standard residue; d: D form. R8 = C=CCCCCCC[C@@](C)(N)C(=O)O; S5 = C=CCCC[C@](C)(N)C(=O)O

Experiments:
[1] = 28-day toxicity study: injection site reactogenicity; assay type: in vivo, CD-1 mice; conditions: for Injection site reactogenicity: Animals with Signs: 28-day study
Description: (§1) Toxicology was performed by IITRI. The study was conducted in compliance with the US Food and Drug Administration (FDA) good laboratory practice (GLP) Regulations (Code of Federal Regulations Title 21 Part 58) to evaluate the toxicokinetics, local tolerability, immunogenicity, and potential toxicity of SAH5-EJ1 following three times per week intravenous (IV) dosing for 28 days in mice. Male and female CD-1 IGS [Crl:CD1(ICR)] mice (135 per sex) were received from Wilmington, MA-based Charles River Laboratories, Inc.’s Kingston facility (Stone Ridge, NY).
Response measured at 6 and 24 hours post-injection.

[2] = 28-day toxicity study: treatment observation frequency; assay type: in vivo, CD-1 mice; conditions: for Treatment observation: Animals with Signs: 28 days
Description: as §1

CC[C@H](C)[C@H](NC(=O)[C@H](Cc1c[nH]cn1)NC(=O)[C@H](CCCNC(=N)N)NC(=O)[C@H](CCCNC(=N)N)NC(=O)[C@H](CCCNC(=N)N)NC(=O)[C@H](CCSC)NC(=O)[C@H](Cc1ccccc1)NC(=O)[C@H](C)NC(=O)[C@H](CCCNC(=N)N)NC(=O)[C@H](C)NC(=O)[C@H](CCC(N)=O)NC(=O)[C@H](CCCNC(=N)N)NC(=O)[C@H](C)NC(=O)[C@H](C)NC(=O)[C@H](C)NC(=O)[C@H](CCCNC(=N)N)NC(=O)[C@H](C)NC(=O)[C@@H](N)Cc1ccc(O)cc1)C(=O)N[C@H](C(=O)N[C@@H](CCCNC(=N)N)C(=O)N[C@@H](CCCCN)C(=O)N[C@@H](CCCNC(=N)N)C(=O)N[C@]1(C)CCCCCCC=CCCC[C@@](C)(C(=O)N[C@@H](CCCNC(=N)N)C(=O)N[C@@H](CCC(=O)O)C(N)=O)NC(=O)[C@H](CCC(N)=O)NC(=O)[C@H](CC(C)C)NC(=O)[C@H](CC(C)C)NC(=O)[C@H](CCCNC(=N)N)NC(=O)[C@H](CCCNC(=N)N)NC(=O)[C@H](CC(C)C)NC1=O)C(C)C [SAH5-EJ1] (H-YARAAARQARAFMRRRHIVRKR[R8]LRRLLQ[S5]RE-NH2; staple 23-30)
14: Edema: 1 - Minimal, slight swelling (animals) ([1]; female, 15 mg/kg, 15 examined) | Erythema and Eschar: 2 - Mild, bright pink/pale, distinct (animals) ([1]; female, 15 mg/kg, 15 examined) | Edema: 1 - Minimal, slight swelling (animals) ([1]; male, 15 mg/kg, 15 examined) | Edema: 2 - Mild, defined swelling (animals) ([1]; male, 15 mg/kg, 15 examined)
7: Erythema and Eschar: 2 - Mild, bright pink/pale, distinct (animals) ([1]; female, 10 mg/kg, 10 examined) | Edema: 1 - Minimal, slight swelling (animals) ([1]; male, 5 mg/kg, 10 examined) | Edema: 2 - Mild, defined swelling (animals) ([1]; male, 10 mg/kg, 10 examined) | Edema: 3 - Moderate, defined swelling, raised border (animals) ([1]; male, 15 mg/kg, 15 examined)
10: Edema (animals) ([1]; female, 5 mg/kg, 10 examined) | Edema: 0 - Normal, no swelling (animals) ([1]; female, 5 mg/kg, 10 examined) | Erythema and Eschar Formation (animals) ([1]; female, 5 mg/kg, 10 examined) | Erythema and Eschar: 0 - Normal (animals) ([1]; female, 5 mg/kg, 10 examined) | Injection site reactogenicity: Animals with Signs ([1]; female, 5 mg/kg, 10 examined) | Edema (animals) ([1]; female, 10 mg/kg, 10 examined) | Edema: 0 - Normal, no swelling (animals) ([1]; female, 10 mg/kg, 10 examined) | Edema: 1 - Minimal, slight swelling (animals) ([1]; female, 10 mg/kg, 10 examined) | Erythema and Eschar Formation (animals) ([1]; female, 10 mg/kg, 10 examined) | Erythema and Eschar: 0 - Normal (animals) ([1]; female, 10 mg/kg, 10 examined) | Erythema and Eschar: 1 - Minimal (animals) ([1]; female, 10 mg/kg, 10 examined) | Injection site reactogenicity: Animals with Signs ([1]; female, 10 mg/kg, 10 examined) | Erythema and Eschar: 1 - Minimal (animals) ([1]; female, 15 mg/kg, 15 examined) | Edema (animals) ([1]; male, 5 mg/kg, 10 examined) | Edema: 0 - Normal, no swelling (animals) ([1]; male, 5 mg/kg, 10 examined) | Erythema and Eschar Formation (animals) ([1]; male, 5 mg/kg, 10 examined) | Erythema and Eschar: 0 - Normal (animals) ([1]; male, 5 mg/kg, 10 examined) | Injection site reactogenicity: Animals with Signs ([1]; male, 5 mg/kg, 10 examined) | Edema (animals) ([1]; male, 10 mg/kg, 10 examined) | Edema: 0 - Normal, no swelling (animals) ([1]; male, 10 mg/kg, 10 examined) | Erythema and Eschar Formation (animals) ([1]; male, 10 mg/kg, 10 examined) | Erythema and Eschar: 0 - Normal (animals) ([1]; male, 10 mg/kg, 10 examined) | Injection site reactogenicity: Animals with Signs ([1]; male, 10 mg/kg, 10 examined) | Erythema and Eschar: 3 - Moderate, bright red, distinct (animals) ([1]; male, 15 mg/kg, 15 examined) | Treatment observation: Normal (animals) ([2]; female, 5 mg/kg, 10 examined) | Treatment observation: Normal (animals) ([2]; female, 10 mg/kg, 10 examined) | Treatment observation: Normal (animals) ([2]; male, 5 mg/kg, 10 examined) | Treatment observation: Normal (animals) ([2]; male, 10 mg/kg, 10 examined)
15: Edema (animals) ([1]; female, 15 mg/kg, 15 examined) | Edema: 0 - Normal, no swelling (animals) ([1]; female, 15 mg/kg, 15 examined) | Erythema and Eschar Formation (animals) ([1]; female, 15 mg/kg, 15 examined) | Erythema and Eschar: 0 - Normal (animals) ([1]; female, 15 mg/kg, 15 examined) | Injection site reactogenicity: Animals with Signs ([1]; female, 15 mg/kg, 15 examined) | Edema (animals) ([1]; male, 15 mg/kg, 15 examined) | Edema: 0 - Normal, no swelling (animals) ([1]; male, 15 mg/kg, 15 examined) | Erythema and Eschar Formation (animals) ([1]; male, 15 mg/kg, 15 examined) | Erythema and Eschar: 0 - Normal (animals) ([1]; male, 15 mg/kg, 15 examined) | Erythema and Eschar: 2 - Mild, bright pink/pale, distinct (animals) ([1]; male, 15 mg/kg, 15 examined) | Injection site reactogenicity: Animals with Signs ([1]; male, 15 mg/kg, 15 examined) | Treatment observation: Normal (animals) ([2]; female, 15 mg/kg, 15 examined) | Treatment observation: Normal (animals) ([2]; male, 15 mg/kg, 15 examined)
3: Edema: 2 - Mild, defined swelling (animals) ([1]; female, 10 mg/kg, 10 examined) | Erythema and Eschar: 1 - Minimal (animals) ([1]; male, 5 mg/kg, 10 examined)
1: Erythema and Eschar: 4 - Severe, dark red, pronounced (animals) ([1]; female, 5 mg/kg, 10 examined) | Edema: 3 - Moderate, defined swelling, raised border (animals) ([1]; female, 15 mg/kg, 15 examined) | Erythema and Eschar: 4 - Severe, dark red, pronounced (animals) ([1]; male, 5 mg/kg, 10 examined) | Edema: 3 - Moderate, defined swelling, raised border (animals) ([1]; male, 10 mg/kg, 10 examined) | Edema: 4 - Severe, pronounced swelling, raised border (animals) ([1]; male, 10 mg/kg, 10 examined) | Treatment observation: Discolored Urine (animals) ([2]; female, 15 mg/kg, 15 examined) | Treatment observation: Hunched Posture (animals) ([2]; female, 15 mg/kg, 15 examined) | Treatment observation: Discolored Urine (animals) ([2]; male, 15 mg/kg, 15 examined)
4: Erythema and Eschar: 1 - Minimal (animals) ([1]; female, 5 mg/kg, 10 examined) | Erythema and Eschar: 2 - Mild, bright pink/pale, distinct (animals) ([1]; female, 5 mg/kg, 10 examined) | Erythema and Eschar: 3 - Moderate, bright red, distinct (animals) ([1]; male, 10 mg/kg, 10 examined)
0: Edema: 2 - Mild, defined swelling (animals) ([1]; female, 5 mg/kg, 10 examined) | Edema: 3 - Moderate, defined swelling, raised border (animals) ([1]; female, 5 mg/kg, 10 examined) | Erythema and Eschar: 3 - Moderate, bright red, distinct (animals) ([1]; female, 5 mg/kg, 10 examined) | Edema: 3 - Moderate, defined swelling, raised border (animals) ([1]; female, 10 mg/kg, 10 examined) | Edema: 2 - Mild, defined swelling (animals) ([1]; male, 5 mg/kg, 10 examined) | Edema: 3 - Moderate, defined swelling, raised border (animals) ([1]; male, 5 mg/kg, 10 examined) | Edema: 4 - Severe, pronounced swelling, raised border (animals) ([1]; male, 5 mg/kg, 10 examined) | Erythema and Eschar: 3 - Moderate, bright red, distinct (animals) ([1]; male, 5 mg/kg, 10 examined) | Treatment observation: Discolored Urine (animals) ([2]; female, 5 mg/kg, 10 examined) | Treatment observation: General (animals) ([2]; female, 5 mg/kg, 10 examined) | Treatment observation: Hunched Posture (animals) ([2]; female, 5 mg/kg, 10 examined) | Treatment observation: Hypoactive (animals) ([2]; female, 5 mg/kg, 10 examined) | Treatment observation: Animals with Signs ([2]; female, 5 mg/kg, 10 examined) | Treatment observation: Discolored Urine (animals) ([2]; female, 10 mg/kg, 10 examined) | Treatment observation: General (animals) ([2]; female, 10 mg/kg, 10 examined) | Treatment observation: Hunched Posture (animals) ([2]; female, 10 mg/kg, 10 examined) | Treatment observation: Hypoactive (animals) ([2]; female, 10 mg/kg, 10 examined) | Treatment observation: Animals with Signs ([2]; female, 10 mg/kg, 10 examined) | Treatment observation: Discolored Urine (animals) ([2]; male, 5 mg/kg, 10 examined) | Treatment observation: General (animals) ([2]; male, 5 mg/kg, 10 examined) | Treatment observation: Rough Coat (animals) ([2]; male, 5 mg/kg, 10 examined) | Treatment observation: Animals with Signs ([2]; male, 5 mg/kg, 10 examined) | Treatment observation: Discolored Urine (animals) ([2]; male, 10 mg/kg, 10 examined) | Treatment observation: General (animals) ([2]; male, 10 mg/kg, 10 examined) | Treatment observation: Rough Coat (animals) ([2]; male, 10 mg/kg, 10 examined) | Treatment observation: Animals with Signs ([2]; male, 10 mg/kg, 10 examined)
2: Erythema and Eschar: 4 - Severe, dark red, pronounced (animals) ([1]; female, 10 mg/kg, 10 examined) | Erythema and Eschar: 2 - Mild, bright pink/pale, distinct (animals) ([1]; male, 5 mg/kg, 10 examined) | Erythema and Eschar: 4 - Severe, dark red, pronounced (animals) ([1]; male, 10 mg/kg, 10 examined) | Edema: 4 - Severe, pronounced swelling, raised border (animals) ([1]; male, 15 mg/kg, 15 examined) | Treatment observation: General (animals) ([2]; female, 15 mg/kg, 15 examined) | Treatment observation: Hypoactive (animals) ([2]; female, 15 mg/kg, 15 examined) | Treatment observation: Animals with Signs ([2]; female, 15 mg/kg, 15 examined) | Treatment observation: General (animals) ([2]; male, 15 mg/kg, 15 examined) | Treatment observation: Rough Coat (animals) ([2]; male, 15 mg/kg, 15 examined) | Treatment observation: Animals with Signs ([2]; male, 15 mg/kg, 15 examined)
8: Edema: 1 - Minimal, slight swelling (animals) ([1]; male, 10 mg/kg, 10 examined) | Erythema and Eschar: 2 - Mild, bright pink/pale, distinct (animals) ([1]; male, 10 mg/kg, 10 examined)
5: Edema: 1 - Minimal, slight swelling (animals) ([1]; female, 5 mg/kg, 10 examined) | Erythema and Eschar: 3 - Moderate, bright red, distinct (animals) ([1]; female, 10 mg/kg, 10 examined) | Erythema and Eschar: 3 - Moderate, bright red, distinct (animals) ([1]; female, 15 mg/kg, 15 examined)
12: Edema: 2 - Mild, defined swelling (animals) ([1]; female, 15 mg/kg, 15 examined)
6: Erythema and Eschar: 4 - Severe, dark red, pronounced (animals) ([1]; female, 15 mg/kg, 15 examined) | Erythema and Eschar: 1 - Minimal (animals) ([1]; male, 10 mg/kg, 10 examined) | Erythema and Eschar: 4 - Severe, dark red, pronounced (animals) ([1]; male, 15 mg/kg, 15 examined)
11: Erythema and Eschar: 1 - Minimal (animals) ([1]; male, 15 mg/kg, 15 examined)
